Peptide text beside a SMILES is read from it.
What was measured:
αv TM domain = target: T1, αv TM domain (Homo sapiens, UniProt P06756); experiment: DN-TOXCAT heterodimerization; type: cell-based; details: coexpressed in bacterial membranes
T1 construct: expressed in transfected cells; host or cells: E. coli MM39, pDNToxR-Duet
Procedure: Both the affinity and specificity of the membrane protein-binding peptides for their targets when coexpressed in bacterial membranes were assessed with a DN-“TOXCAT” assay (FIGS. 3a-3c). In TOXCAT, a TM sequence of interest is fused to a ToxR protein (TM-ToxR) that binds to the ctx promoter as a dimer, which induces expression of chloramphenicol acetyltransferase (CAT) (W. P. Russ, D. M. Engelman, Proc. Natl. Acad. Sci. U.S.A. 96, 863 (1999); D. Langosch, B. Brosig, H. Kolmar, H. J. Fritz, J. Mol. Biol. 263, 525 (1996)). In the DN assay, the TM1-ToxR fusion protein is coexpressed with a second fusion protein (TM2-ToxR*) containing a nonfunctional mutant of the ToxR domain. TM-driven dimerization leads to a ToxR-ToxR* dimer that is unable to bind the ctx promoter or to induce CAT synthesis (FIG. 3a). The resulting decrease in CAT activity can be used to monitor the formation of a heterodimeric TM complex. In principle, this assay could be accomplished by adding an exogenous synthetic peptide (D. Gerber, N. Sal-Man, Y. Shai, J. Mol. Biol. 339, 243 (2004)); however, it is difficult to assure that different peptides will be similarly inserted into the Escherichia coli inner membrane.
For testing the specificity of the designed membrane protein-binding polypeptide sequences against the integrin TM domains, the designed sequences (anti-αIIb and anti-αV) were cloned into MCS1 of the Duet vector and the integrin TM domains into MCS2 of the Duet vector. In this configuration, the integrin TMs compete for the homodimers formed by the polypeptide sequences, with the decrease in CAT signal proportional to the extent of heterodimerization between a given integrin TM and polypeptide sequence relative to the homodimerization of the polypeptide sequence.
Single MM39 colonies containing pDNToxR-Duet constructs from selective plates were chosen, inoculated in 5 mL of LB medium containing 100 μg/mL ampicillin and grown to an OD600 of 0.2 at 37° C. with vigorous shaking. IPTG was added to the medium at a final concentration of 0.1 mM IPTG and grown to an OD600 of 0.7. Purification, immunoblotting, CAT ELISA and MalE complementation assays are essentially as described previously. Li, R., Gorelik, R., Nanda, V., Law, P. B., Lear, J. D., DeGrado, W. F. and Bennett, J. S. J. Biol. Chem. 2004, 279, 26666-26673 (2004). For immunoblotting, anti-MBP (NEB) was used for pccKAN (TOXCAT) constructs, whereas anti-myc (Covance) and anti-HA (Covance) were used for pDNToxR-Duet constructs. CAT ELISA results are an average of 3 independent replicates.

FITC-αIIb-TM = target: T2, FITC-αIIb-TM (Homo sapiens, UniProt P08514); experiment: FRET heterodimeric association in micelles; type: binding; details: pH 7.5
T2 construct: designated αIIb-TM, spanning residues Trp968 to Lys989 of αIIb was synthesized; made in house; host or cells: chemical peptide synthesis (no expression host)
Procedure: FRET provided a more direct measure of the αIIb-TM/anti-αIIb heterodimeric association. […] Because the appropriate parameter for the association of polypeptides in micelles is generally the polypeptide concentration in the detergent micellar phase rather than the bulk polypeptide concentration, dissociation constants are often given in mole fraction units (polypeptide/detergent ratios).
Fluorescence resonance energy transfer (FRET) experiments were conducted on an ATF 105 spectrofluorometer (Aviv Biomedical, Inc., Lakewood, N.J.) using 0.3 cm path length cuvettes. […] Reference samples contain the same amount of FITC-αIIb-TM and non-labeled anti-αIIb to their corresponding FRET samples. Emission and excitation scans of the 1:1 mixture of FITC-αIIb-TM/coum-anti-αIIb were carried out to determine the optimal excitation and emission wavelengths. Excitation at 415 nm was selected. For the titration experiments in FIG. 2b, the emission at 500 nm was monitored. A slit width of 1.5 nm was used for both the excitation and emission. The signal and QC PMT high voltages were set at 737.3 V and 75.0 V, respectively. For the time-domain experiments, an experiment time of 600 seconds with 10 seconds of interval time and 10 seconds of average time was used. […] The fluorescence intensity values were used after correction of the inner filter effects using the standard method. […]

αIIbβ3 = target: T3, αIIbβ3 (Homo sapiens, UniProt P08514); experiment: FACS analysis of FITC-fibrinogen binding to platelets; type: cell-based
T3 construct: trapped from a suspension of gel filtered human platelets or CHO cells; endogenous in cells; host or cells: gel-filtered human platelets
Procedure: Freshly isolated platelets were added to 200 μg/ml FITC-conjugated fibrinogen, then incubated with 20 μM ADP or 2 μM of the anti-αIIb polypeptide in the presence or in the absence of 5 mM EDTA for 3 min at room temperature. After incubation, the platelets were fixed with 0.37% formalin in PBS buffer for 10 min, then washed and examined by FACS analysis as previously reported. See Ulmschneider M B et al. Proteins: Struct. Funct. Bioinformat. 59, 252-265 (2005). The polypeptide was added from a DMSO solution such that the final concentration of DMSO was no greater than 0.5%. All controls also had 0.5% DMSO in the buffer.

[1] = tested on: gel-filtered human platelets; experiment: Platelet aggregation, turbidometric; type: cell-based
Procedure: Platelet-rich plasma, prepared from human blood anti-coagulated with 0.1 volume of 0.13 M sodium citrate, was gel-filtered on Sepharose 2B (Amersham Biosciences, Piscataway, N.J.) using an elution buffer containing 137 mM NaCl, 2.7 mM KCl, 1 mM MgCl2, 5.6 mM glucose, 0.35 mg/ml bovine serum albumin, 3.3 mM NaH2PO4, and 4 mM HEPES (pH=7.4), as previously described. Jordan P et al. Nature 411, 909-917 (2001). Turbidometric measurements of platelet aggregation were performed in a Chrono-Log Lumi-Dual Aggregometer. Aliquots (0.4 ml) of the gel-filtered platelet suspension were supplemented with 200 μg/ml human fibrinogen (Enzyme Research Labs., South Bend, Ind.) and 1 mM CaCl2 (final concentrations) prior to adding platelet agonists. The polypeptide was added from a DMSO solution such that the final concentration of DMSO was no greater than 0.5%. All controls also had 0.5% DMSO in the buffer.

T1 sequence (P06756 with tags, fused parts or gaps limits assumed): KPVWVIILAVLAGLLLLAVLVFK
T3 sequence (P08514 891-1039 limits assumed): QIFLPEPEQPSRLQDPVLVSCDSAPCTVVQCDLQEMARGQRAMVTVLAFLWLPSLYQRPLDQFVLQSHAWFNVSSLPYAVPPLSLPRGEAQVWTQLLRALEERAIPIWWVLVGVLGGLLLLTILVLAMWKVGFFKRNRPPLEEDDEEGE
T3 sequence (P08514 32-887 partner limits assumed): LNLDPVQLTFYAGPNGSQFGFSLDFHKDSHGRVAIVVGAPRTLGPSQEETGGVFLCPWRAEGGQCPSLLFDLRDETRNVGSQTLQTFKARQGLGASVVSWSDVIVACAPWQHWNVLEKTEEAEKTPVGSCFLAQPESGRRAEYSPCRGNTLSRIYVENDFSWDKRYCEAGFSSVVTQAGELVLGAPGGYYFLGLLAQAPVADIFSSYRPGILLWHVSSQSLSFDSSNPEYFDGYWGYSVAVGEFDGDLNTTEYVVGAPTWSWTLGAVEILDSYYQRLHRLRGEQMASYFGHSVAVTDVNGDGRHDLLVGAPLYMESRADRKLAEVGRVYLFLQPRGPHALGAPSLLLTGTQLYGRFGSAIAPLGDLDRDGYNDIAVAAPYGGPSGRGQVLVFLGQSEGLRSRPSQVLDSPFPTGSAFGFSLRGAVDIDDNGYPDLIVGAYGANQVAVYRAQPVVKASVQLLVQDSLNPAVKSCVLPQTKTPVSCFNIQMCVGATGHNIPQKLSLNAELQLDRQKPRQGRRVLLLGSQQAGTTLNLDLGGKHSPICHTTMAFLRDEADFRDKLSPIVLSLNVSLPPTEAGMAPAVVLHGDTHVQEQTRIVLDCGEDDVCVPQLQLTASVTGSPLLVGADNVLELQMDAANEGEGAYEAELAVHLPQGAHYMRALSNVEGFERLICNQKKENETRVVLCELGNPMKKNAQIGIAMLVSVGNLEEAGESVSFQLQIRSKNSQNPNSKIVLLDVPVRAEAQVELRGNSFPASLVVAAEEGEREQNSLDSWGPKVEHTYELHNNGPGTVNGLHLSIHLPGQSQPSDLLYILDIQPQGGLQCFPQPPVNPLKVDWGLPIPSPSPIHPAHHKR
T3 sequence (P05106 27-788 partner): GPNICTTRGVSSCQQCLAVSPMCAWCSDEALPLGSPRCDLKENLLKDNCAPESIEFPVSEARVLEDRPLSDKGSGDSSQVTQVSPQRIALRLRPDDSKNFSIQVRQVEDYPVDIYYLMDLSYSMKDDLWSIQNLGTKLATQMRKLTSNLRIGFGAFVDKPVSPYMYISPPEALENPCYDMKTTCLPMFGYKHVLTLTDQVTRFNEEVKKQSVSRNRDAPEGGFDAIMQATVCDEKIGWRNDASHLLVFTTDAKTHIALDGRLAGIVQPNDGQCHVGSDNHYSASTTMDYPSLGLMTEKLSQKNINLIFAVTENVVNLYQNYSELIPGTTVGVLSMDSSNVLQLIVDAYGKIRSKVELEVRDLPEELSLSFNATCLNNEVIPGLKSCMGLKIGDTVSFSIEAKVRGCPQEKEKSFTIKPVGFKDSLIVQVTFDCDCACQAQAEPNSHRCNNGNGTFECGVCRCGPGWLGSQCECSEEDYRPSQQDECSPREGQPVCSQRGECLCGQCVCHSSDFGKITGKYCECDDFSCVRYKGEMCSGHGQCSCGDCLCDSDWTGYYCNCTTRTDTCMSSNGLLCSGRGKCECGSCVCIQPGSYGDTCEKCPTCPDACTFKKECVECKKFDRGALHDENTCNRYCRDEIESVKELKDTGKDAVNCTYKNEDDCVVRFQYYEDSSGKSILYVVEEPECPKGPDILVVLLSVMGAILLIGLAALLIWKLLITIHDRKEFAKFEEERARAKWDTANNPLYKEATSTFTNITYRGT
T2 sequence (P08514 999-1020 limits assumed): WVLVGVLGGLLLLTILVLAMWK

Compound	interaction with αv TM domain (αv TM domain)	apparent Kdiss for the αIIb-TM/anti-αIIb interaction (FITC-αIIb-TM)	FITC-labeled fibrinogen bound by platelets (αIIbβ3; 2.0 μM polypeptide, compared with 20 μM ADP)	induced fibrinogen binding in the presence of EDTA (αIIbβ3; 5 mM EDTA)	induced aggregation in the presence of PGE1 and apyrase ([1]; 1 μM peptide, 2 μM PGE1, 10 units/ml apyrase)	induced aggregation in the presence of EDTA, Arg-Gly-Asp-Ser or antibody A2A9 ([1]; agents that directly target αIIbβ3)	platelet aggregation response ([1]; gel-filtered human platelets)
AYVFILLSFILGTLLGFLVMFWA [anti-αV]	much greater affinity than the α2, αIIb, β1, or β3 domains	–	–	–	–	–	–
CC[C@H](C)[C@H](NC(=O)[C@H](Cc1ccccc1)NC(=O)[C@H](Cc1ccccc1)NC(=O)[C@@H]1CCCN1C(=O)[C@H](CC(C)C)NC(=O)[C@H](CC(C)C)NC(=O)[C@H](CCSC)NC(=O)[C@@H](NC(=O)[C@H](Cc1ccc(O)cc1)NC(=O)[C@H](C)NC(=O)[C@H](CCCCN)NC(=O)[C@@H](N)CCCCN)C(C)C)C(=O)NCC(=O)N[C@@H](CC(C)C)C(=O)N[C@@H](CC(C)C)C(=O)N[C@@H](CC(C)C)C(=O)NCC(=O)N[C@@H](CC(C)C)C(=O)N[C@H](C(=O)N[C@@H](Cc1ccccc1)C(=O)NCC(=O)NCC(=O)N[C@@H](C)C(=O)N[C@@H](Cc1ccccc1)C(=O)N[C@@H](Cc1c[nH]c2ccccc12)C(=O)NCC(=O)N1CCC[C@H]1C(=O)N[C@@H](C)C(=O)N[C@@H](CCCNC(=N)N)C(=O)N[C@@H](Cc1c[nH]cn1)C(=O)N[C@@H](CC(C)C)C(=O)N[C@@H](CCCCN)C(=O)N[C@@H](CCCCN)C(N)=O)[C@@H](C)CC [anti-αIIb] (H-KKAYVMLLPFFIGLLLGLIFGGAFWGPARHLKK-NH2; N-terminus assumed)	failed to significantly interact	3.2±0.5×10^−4 mole fraction units	comparable amounts	prevented	only minimally affected	inhibited	highly active

Reference: US8349791B2, “Polypeptides that bind membrane proteins” (The Trustees of the University of Pennsylvania, priority 2006, dated 2013)
